Converted amounts (≈) assume the structure as drawn.
Legend:
[1] = Thermodynamic aqueous solubility of the compound at 2 mM and pH 7.4 measured after 20 hrs by HPLC analysis; assay type: physicochemical; conditions: aqueous medium, read-out: Therm_solubility
[2] = Metabolic stability in human plasma assessed as compound degradation at 2 uM measured after 30 mins by LC-ESI/MS analysis; assay type: ADME, cell-free; conditions: 0.5 h
[3] = Apparent passive permeability in MDCK cells expressing MDR1 (unknown origin) at 5 uM measured after 60 mins by LC-MS/MS analysis; assay type: ADME, cell-based, Canis lupus familiaris; conditions: dog
[4] = Octanol-water partition coefficient, log D of the compound at pH 7.4 by shake flask method; assay type: physicochemical

| solubility thermodynamic at 20 h, 2000 µM [1] [mg/mL] | Stability [2] | Papp at 1 h, 5 µM [3] [nm/s] | logD [4] | SMILES |
| --- | --- | --- | --- | --- |
| 0.01 (≈ 13.7 µM) | Stable | 400 | – | CC[C@H](C)[C@@H]1NC(=O)[C@@H](CC(C)C)NC(=O)[C@H](Cc2ccccc2)NC(=O)[C@@H]2CCCN2C(=O)[C@@H](Cc2ccccc2)NC(=O)[C@H](CC(C)C)NC1=O |
| 0.03 (≈ 41 µM) | Stable | 180 | – | CC[C@H](C)[C@@H]1NC(=O)[C@@H](CC(C)C)NC(=O)[C@H](Cc2ccccc2)NC(=O)[C@H]2CCCN2C(=O)[C@@H](Cc2ccccc2)NC(=O)[C@H](CC(C)C)NC1=O |
| 0.07 (≈ 97.6 µM) | Stable | 110 | 2.41 | CC(C)C[C@@H]1NC(=O)[C@H](C(C)C)NC(=O)[C@@H](CC(C)C)NC(=O)[C@H](Cc2ccccc2)NC(=O)[C@H]2CCCN2C(=O)[C@@H](Cc2ccccc2)NC1=O |

Further lines, the molecule ahead of its results:

| SMILES | solubility thermodynamic at 20 h, 2000 µM [1] [mg/mL] | Stability [2] | Papp at 1 h, 5 µM [3] [nm/s] | logD [4] |
| --- | --- | --- | --- | --- |
| CC(C)C[C@@H]1NC(=O)[C@H](C(C)C)NC(=O)[C@@H](CC(C)C)NC(=O)[C@H](Cc2ccccc2)NC(=O)[C@@H]2CCCN2C(=O)[C@@H](Cc2ccccc2)NC1=O | 0.05 (≈ 69.7 µM) | Stable | 390 | 2.33 |
| CC(C)C[C@@H]1NC(=O)[C@H](C(C)C)NC(=O)[C@@H](CC(C)C)NC(=O)[C@H](CC(C)C)NC(=O)[C@H]2CCCN2C(=O)[C@@H](Cc2ccccc2)NC1=O | 0.15 (≈ 220 µM) | Stable | 80 | 2.37 |
| CC[C@H](C)[C@@H]1NC(=O)[C@@H](CC(C)C)NC(=O)[C@H](CC(C)C)NC(=O)[C@@H]2CCCN2C(=O)[C@@H](Cc2ccccc2)NC(=O)[C@H](CC(C)C)NC1=O | 0.06 (≈ 86.1 µM) | Stable | 400 | 2.63 |
| CC(C)C[C@@H]1NC(=O)[C@H](C(C)C)NC(=O)[C@@H](CC(C)C)NC(=O)[C@H](CC(C)C)NC(=O)[C@@H]2CCCN2C(=O)[C@@H](Cc2ccccc2)NC1=O | 0.17 (≈ 249 µM) | Stable | 330 | 2.08 |
| CC[C@H](C)[C@@H]1NC(=O)[C@@H](CC(C)C)NC(=O)[C@H](CC(C)C)NC(=O)[C@H]2CCCN2C(=O)[C@@H](Cc2ccccc2)NC(=O)[C@H](CC(C)C)NC1=O | 0.07 (≈ 100 µM) | Stable | 150 | 2.39 |

Reference: ChEMBL document CHEMBL4431375, “Stereochemistry Balances Cell Permeability and Solubility in the Naturally Derived Phepropeptin Cyclic Peptides” (ACS Med Chem Lett, 2016)
